Measurements as given in patent US20240092791A1, “DIHYDROFUROPYRIDINE DERIVATIVES AS RHO-KINASE INHIBITORS” (CHIESI FARMACEUTICI S.P.A., priority 2020, published 2024).

Experiments:
Rho kinase 2 (ROCK2) = Rho kinase 2 (ROCK2) (Homo sapiens, UniProt O75116); assay: In vitro inhibitory activity assay ROCK2 (ADP-Glo); format: biochemical; conditions: ATP 200 μM, Cheng-Prusoff from IC50; read-out: ROCK2 (Ki, range of activity)
Protocol: (§1) The effectiveness of compounds of the present invention to inhibit Rho kinase activity can be determined in a 10 μl assay containing 40 mM Tris pH7.5, 20 mM MgCl2 0.1 mg/mL BSA, 50 μM DTT and 2.5 μM peptide substrate (Myelin Basic Protein) using an ADP-Glo kit (Promega). Compounds were dissolved in DMSO such that the final concentration of DMSO was 1% in the assay. All reactions/incubations are performed at 25° C. Compound (2 ul) and either Rho kinase 1 or 2 (4 μl) were mixed and incubated for 30 mins. Reactions were initiated by addition of ATP (4μ1) such that the final concentration of ATP in the assay was 200 μM. After a 1 hour incubation 10 μl of ADP-Glo Reagent was added and after a further 1 hour incubation 20 ul of Kinase Detection Buffer was added and the mixture incubated for a further 45 minutes. The luminescent signal was measured on a luminometer. […] Compounds were tested in dose-response format and the inhibition of kinase activity was calculated at each concentration of compound. To determine the IC50 (concentration of compound required to inhibit 50% of the enzyme activity) data were fit to a plot of % inhibition vs Log10 compound concentration using a sigmoidal fit with a variable slope and fixing the maximum to 100% and the minimum to 0%. To determine the Ki values the Cheng-Prusoff equation was utilized (Ki=IC50/(1+[S]/Km).

Rho kinase 1 (ROCK1) = Rho kinase 1 (ROCK1) (Homo sapiens, UniProt Q13464); assay: In vitro inhibitory activity assay ROCK1 (ADP-Glo); format: biochemical; conditions: ATP 200 μM, Cheng-Prusoff from IC50; read-out: ROCK 1 (Ki, range of activity)
Chain of Rho kinase 1 (ROCK1) (Q13464 whole entry): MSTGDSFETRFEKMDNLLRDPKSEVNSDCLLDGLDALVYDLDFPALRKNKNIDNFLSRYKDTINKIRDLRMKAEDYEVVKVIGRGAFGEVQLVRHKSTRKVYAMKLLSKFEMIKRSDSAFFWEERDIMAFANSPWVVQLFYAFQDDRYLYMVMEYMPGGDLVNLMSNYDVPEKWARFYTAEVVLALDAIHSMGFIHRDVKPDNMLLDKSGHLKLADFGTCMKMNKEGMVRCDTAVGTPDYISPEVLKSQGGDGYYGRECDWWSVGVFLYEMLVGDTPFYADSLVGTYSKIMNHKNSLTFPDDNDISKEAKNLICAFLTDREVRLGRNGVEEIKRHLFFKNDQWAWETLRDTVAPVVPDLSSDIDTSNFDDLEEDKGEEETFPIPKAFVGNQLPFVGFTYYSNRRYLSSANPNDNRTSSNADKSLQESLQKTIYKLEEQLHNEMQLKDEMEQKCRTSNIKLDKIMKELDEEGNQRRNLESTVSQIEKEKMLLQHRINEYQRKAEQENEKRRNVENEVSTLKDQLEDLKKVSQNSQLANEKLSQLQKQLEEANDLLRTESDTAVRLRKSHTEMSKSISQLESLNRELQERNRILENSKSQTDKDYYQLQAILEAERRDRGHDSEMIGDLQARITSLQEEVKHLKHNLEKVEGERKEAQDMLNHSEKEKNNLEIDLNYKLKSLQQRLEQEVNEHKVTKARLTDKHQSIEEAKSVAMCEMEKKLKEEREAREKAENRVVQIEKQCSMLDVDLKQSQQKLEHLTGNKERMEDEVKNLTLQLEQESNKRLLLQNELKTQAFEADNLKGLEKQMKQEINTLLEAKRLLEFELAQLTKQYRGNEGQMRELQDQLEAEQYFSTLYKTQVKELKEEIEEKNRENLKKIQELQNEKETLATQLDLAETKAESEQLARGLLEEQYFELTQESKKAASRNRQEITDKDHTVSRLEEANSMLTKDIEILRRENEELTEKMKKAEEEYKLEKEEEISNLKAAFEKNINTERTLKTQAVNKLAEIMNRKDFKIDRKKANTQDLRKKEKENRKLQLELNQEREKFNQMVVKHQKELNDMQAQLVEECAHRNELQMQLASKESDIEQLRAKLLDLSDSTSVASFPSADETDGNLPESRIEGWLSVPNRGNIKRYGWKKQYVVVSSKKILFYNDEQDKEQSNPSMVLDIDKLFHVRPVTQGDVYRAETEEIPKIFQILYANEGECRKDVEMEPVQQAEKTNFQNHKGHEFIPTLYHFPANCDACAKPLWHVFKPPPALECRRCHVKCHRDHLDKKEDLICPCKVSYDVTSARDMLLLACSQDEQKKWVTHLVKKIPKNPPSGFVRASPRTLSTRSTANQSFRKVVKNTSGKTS
Protocol: as §1

[1] = test system: cch-evoked bronchoconstriction; assay: Experimental bronchospasm (carbachol-induced bronchoconstriction, Konzett & Roessler); format: in vivo, Male CD Sprague Dawley rats; conditions: iv, rat, 1 hour after administration, carbachol 80 μg/kg i.v., read-out: Inhibition % (±s.e. mean) of cch-evoked bronchoconstriction; for inhibition in vivo at 0.01 mg/kg: dose 10 μg/Kg intratracheal
Protocol: Male CD Sprague Dawley rats (220-250 g) were purchased from Charles River Laboratories Italy (Calco, Lecco). Prior to use animals were acclimated for at least 5 days 20 to the local vivarium conditions (room temperature: 20-24° C.; relative humidity: 40-70%), having free access to standard rat chow and softened tap water. All the procedures were performed in animal operating rooms according to ethical guidelines for the conduct of animal research (D. L.vo 116/92).
Rats were anaesthetized with a combination of anesthetics (Zoletil 20 mg/kg+Xylazine 5 mg/kg, ip) for the i.t. administration. A laryngoscope was moved forward into the mouth to visualize the trachea and guide the insertion of the tip of a custom-made small diameter cannula directly into the trachea and located 1-2 mm above the bifurcation.
In order to assess the residual inhibitory activity of test compounds 1 hour after their administration, rats were surgically prepared. Body temperature was kept constant at 37° C. by a heated blanket.
The trachea was cannulated and the lungs were ventilated artificially with a constant volume ventilator (rodent ventilator mod. 7025, Ugo Basile, Comerio, Varese, Italy) at a frequency of 80 strokes/min and at a tidal volume of 10 ml/kg. To avoid spontaneous breathing, the animals were injected intravenously (i.v.) with pancuronium bromide (2 mg/kg).
Bronchoconstriction was induced by the i.v. injection of carbachol (cch) 80 μg/kg. In control experiments, repeated injections of this dose produced reproducible short-lasting (1-2 min duration) bronchospasms. Bronchoconstriction, quantified as a reduction of tidal volume, was evaluated according to the method described by Konzett & Roessler (1). Systemic blood pressure and changes in airway resistance were monitored with a digital pressure transducer.
After stabilisation of artificial breathing and blood pressure, animals were injected (i.v.) with cch every 3 min, until 3 stable and reproducible basal responses were obtained. […] The effect of test compounds was 15 expressed as % inhibition of cch-evoked bronchoconstriction in time-matched, vehicle-treated, animals (controls).
Tested compounds were dissolved in dH2O and 1% Tween-80 or 0,001% HCl and further diluted to target concentrations. Tested compounds were instilled locally into the trachea in a volume of 125 μl.
All data are presented as mean±s.e.mean. The % inhibition of experimental bronchospasm was calculated comparing the drug-treated with the vehicle-treated control animals. Data analysis was performed using GraphPad Prism software.

PKA = PKA (Homo sapiens, UniProt P17612); assay: In vitro inhibitory activity assay for PKA (ADP-Glo), reported as selectivity ratio vs ROCK2; format: biochemical; conditions: Ki value for PKA divided by Ki value of ROCK2
Protocol: The effectiveness of compounds of the present invention to inhibit PKA activity can be determined in a 10 μl assay containing 40 mM Tris pH7.5, 20 mM MgCl2 0.1 mg/ml BSA, 50 μM DTT and 260 μM peptide substrate (kemptide) using an ADP-Glo kit (Promega). Compounds were dissolved in DMSO such that the final concentration of DMSO was 1% in the assay. All reactions/incubations are performed at 25° C. Compound and PKA enzyme (6 μl) were mixed and incubated for 30 mins. Reactions were initiated by addition of ATP (4 μl ) such that the final concentration of ATP in the assay was 10 μM. After a 30 minute incubation 10 μl of ADP-Glo Reagent was added and after a further 1 hour incubation 20 μl of Kinase Detection Buffer was added and the mixture incubated for a further 45 minutes. The luminescent signal was measured on a luminometer. […] Compounds were tested in dose-response format and the inhibition of kinase activity was calculated at each concentration of compound. To determine the IC50 (concentration of compound required to inhibit 50% of the enzyme activity) data were fit to a plot of % inhibition vs Logio compound concentration using a sigmoidal fit with a variable slope and fixing the maximum to 100% and the minimum to 0%. To determine the Ki values the Cheng-Prusoff equation was utilized (Ki=IC50/(1+[S]/Km).
In vitro inhibitory activities for PKA were reported as selectivity ratio vs. ROCK-2.

Chain of Rho kinase 2 (ROCK2) (O75116 whole entry): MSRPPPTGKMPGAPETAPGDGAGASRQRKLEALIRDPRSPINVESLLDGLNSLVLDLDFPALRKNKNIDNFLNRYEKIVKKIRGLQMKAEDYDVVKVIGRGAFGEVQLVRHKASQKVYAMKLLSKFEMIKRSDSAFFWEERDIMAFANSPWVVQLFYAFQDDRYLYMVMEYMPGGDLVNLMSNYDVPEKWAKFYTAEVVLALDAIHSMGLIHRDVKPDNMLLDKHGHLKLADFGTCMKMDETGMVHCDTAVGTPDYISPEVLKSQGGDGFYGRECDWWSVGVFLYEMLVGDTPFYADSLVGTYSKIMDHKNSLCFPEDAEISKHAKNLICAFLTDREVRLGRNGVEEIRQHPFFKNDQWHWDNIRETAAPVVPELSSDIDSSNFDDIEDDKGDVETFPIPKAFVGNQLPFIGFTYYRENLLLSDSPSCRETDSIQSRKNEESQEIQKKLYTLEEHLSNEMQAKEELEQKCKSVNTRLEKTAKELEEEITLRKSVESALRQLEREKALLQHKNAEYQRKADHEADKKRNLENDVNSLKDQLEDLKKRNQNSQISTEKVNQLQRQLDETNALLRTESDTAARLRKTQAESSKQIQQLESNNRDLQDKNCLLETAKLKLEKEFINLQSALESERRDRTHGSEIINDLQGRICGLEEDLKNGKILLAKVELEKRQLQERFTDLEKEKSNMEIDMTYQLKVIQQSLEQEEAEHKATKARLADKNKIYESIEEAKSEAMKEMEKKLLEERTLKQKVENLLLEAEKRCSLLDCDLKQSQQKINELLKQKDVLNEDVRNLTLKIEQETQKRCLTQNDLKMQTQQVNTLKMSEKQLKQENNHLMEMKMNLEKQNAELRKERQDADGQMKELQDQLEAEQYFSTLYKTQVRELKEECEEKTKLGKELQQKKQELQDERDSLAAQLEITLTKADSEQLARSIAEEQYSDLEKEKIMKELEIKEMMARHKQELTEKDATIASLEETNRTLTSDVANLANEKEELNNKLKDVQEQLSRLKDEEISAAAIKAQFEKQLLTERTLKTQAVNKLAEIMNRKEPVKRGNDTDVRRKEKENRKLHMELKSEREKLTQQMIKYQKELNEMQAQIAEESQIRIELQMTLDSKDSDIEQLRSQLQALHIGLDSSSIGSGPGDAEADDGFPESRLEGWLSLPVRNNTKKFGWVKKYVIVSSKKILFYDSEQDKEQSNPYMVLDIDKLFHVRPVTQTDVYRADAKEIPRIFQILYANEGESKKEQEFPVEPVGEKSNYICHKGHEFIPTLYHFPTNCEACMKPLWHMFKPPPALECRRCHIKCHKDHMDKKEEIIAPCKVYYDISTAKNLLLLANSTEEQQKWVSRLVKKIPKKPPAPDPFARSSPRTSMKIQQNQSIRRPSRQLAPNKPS

Ki (Rho kinase 2 (ROCK2)) [nM] | Ki (Rho kinase 1 (ROCK1)) [nM] | Ratio (PKA/ROCK2) (PKA) | SMILES | inhibition in vivo at 0.01 mg/kg [1] [%] | inhibition in vivo at 0.003 mg/kg ([1]; dose 3 μg/Kg intratracheal) [%]
> 30 | > 30 | *** (ratio≥10) | CNC(=O)c1cccc(CNc2ncc(-c3ccnc(N)n3)c3c2OCC3)c1 [Example B, 3-(((4-(2-aminopyrimidin-4-yl)-2,3-dihydrofuro[2,3-c]pyridin-7-yl)amino)methyl)-N-methylbenzamide, reference compound] | – | –
≤ 3 | ≤ 3 | *** (ratio≥10) | CN(C)CCOc1ccc(NC(=O)c2cccc(CNc3ncc(-c4ccnc(N)n4)c4c3CCO4)c2)nc1 [Example 52, 3-(((7-(2-aminopyrimidin-4-yl)-2,3-dihydrofuro[3,2-c]pyridin-4-yl)amino)methyl)-N-(5-(2-(dimethylamino)ethoxy)pyridin-2-yl)benzamide] | 51.5 ± 6.2 | –
≤ 3 | ≤ 3 | *** (ratio≥10) | CN(C)CCN(C)c1ccc(NC(=O)c2cccc(CNc3ncc(-c4ccnc(N)n4)c4c3CCO4)c2)nc1 [Example 75, 3-(((7-(2-aminopyrimidin-4-yl)-2,3-dihydrofuro[3,2-c]pyridin-4-yl)amino)methyl)-N-(5-((2-(dimethylamino)ethyl)(methyl)amino)pyridin-2-yl)benzamide] | – | –
≤ 3 | ≤ 3 | *** (ratio≥10) | CNCCNc1ccc(NC(=O)c2cccc(CNc3ncc(-c4ccnc(N)n4)c4c3CCO4)c2)nc1 [Example 70, 3-(((7-(2-aminopyrimidin-4-yl)-2,3-dihydrofuro[3,2-c]pyridin-4-yl)amino)methyl)-N-(5-((2-(methylamino)ethyl)amino)pyridin-2-yl)benzamide] | 62.2 ± 7 | –
3 to 30 | > 30 | * (ratio<5) | Nc1nccc(-c2cnc(NCc3ccccc3)c3c2OCC3)n1 [Example C, 7-(2-Aminopyrimidin-4-yl)-N-benzyl-2,3-dihydrofuro[3,2-c]pyridin-4-amine, reference compound] | – | –
> 30 | > 30 | ** (5≤ratio<10) | CNC(=O)c1cccc(CNc2ncc(-c3ccncn3)c3c2CCO3)c1 [Example A, N-Methyl-3-(((7-(pyrimidin-4-yl)-2,3-dihydrofuro[3,2-c]pyridin-4-yl)amino)methyl)benzamide, reference compound] | – | –
≤ 3 | ≤ 3 | – | CN1CC[C@@H]1COc1ccc(NC(=O)c2cccc(CNc3ncc(-c4ccnc(N)n4)c4c3CCO4)c2)nc1 [Example 81, (R)-3-(((7-(2-aminopyrimidin-4-yl)-2,3-dihydrofuro[3,2-c]pyridin-4-yl)amino)methyl)-N-(5-((1-methylazetidin-2-yl)methoxy)pyridin-2-yl)benzamide] | 81.3 ± 7.9 | –

Continued, molecule first:

SMILES | Ki (Rho kinase 2 (ROCK2)) [nM] | Ki (Rho kinase 1 (ROCK1)) [nM] | Ratio (PKA/ROCK2) (PKA) | inhibition in vivo at 0.01 mg/kg [1] [%] | inhibition in vivo at 0.003 mg/kg ([1]; dose 3 μg/Kg intratracheal) [%]
Nc1nccc(-c2cnc(NCc3cccc(C(=O)Nc4ccc(N5CCNCC5)cn4)c3)c3c2OCC3)n1 [Example 53, 3-(((7-(2-aminopyrimidin-4-yl)-2,3-dihydrofuro[3,2-c]pyridin-4-yl)amino)methyl)-N-(5-(piperazin-1-yl)pyridin-2-yl)benzamide] | ≤ 3 | ≤ 3 | *** (ratio≥10) | 70.7 ± 3.4 | –
CN(C)CCC(=O)N1CCN(c2ccc(NC(=O)c3cccc(CNc4ncc(-c5ccnc(N)n5)c5c4CCO5)c3)nc2)CC1 [Example 66, 3-(((7-(2-aminopyrimidin-4-yl)-2,3-dihydrofuro[3,2-c]pyridin-4-yl)amino)methyl)-N-(5-(4-(3-(dimethylamino)propanoyl)piperazin-1-yl)pyridin-2-yl)benzamide] | ≤ 3 | ≤ 3 | *** (ratio≥10) | 79.4 ± 7.3 | –
C[C@@H]1CN[C@@H](C)CN1c1ccc(NC(=O)c2cccc(CNc3ncc(-c4ccnc(N)n4)c4c3CCO4)c2)nc1 [Example 67] | ≤ 3 | ≤ 3 | *** (ratio≥10) | – | –
CN1C[C@@H]2C[C@H]1CN2c1ccc(NC(=O)c2cccc(CNc3ncc(-c4ccnc(N)n4)c4c3CCO4)c2)nc1 [Example 76, 3-(((7-(2-aminopyrimidin-4-yl)-2,3-dihydrofuro[3,2-c]pyridin-4-yl)amino)methyl)-N-(5-((1S,4S)-5-methyl-2,5-diazabicyclo[2.2.1]heptan-2-yl)pyridin-2-yl)benzamide] | ≤ 3 | ≤ 3 | ** (5≤ratio<10) | – | –
CN1CCC(C(=O)N2CCN(c3ccc(NC(=O)c4cccc(CNc5ncc(-c6ccnc(N)n6)c6c5CCO6)c4)nc3)CC2)CC1 [Example 65, 3-(((7-(2-aminopyrimidin-4-yl)-2,3-dihydrofuro[3,2-c]pyridin-4-yl)amino)methyl)-N-(5-(4-(1-methylpiperidine-4-carbonyl)piperazin-1-yl)pyridin-2-yl)benzamide] | ≤ 3 | ≤ 3 | *** (ratio≥10) | – | –
Nc1nccc(-c2cnc(NCc3cccc(C(=O)Nc4ccc(OC5CCNCC5)cn4)c3)c3c2OCC3)n1 [Example 71, 3-(((7-(2-aminopyrimidin-4-yl)-2,3-dihydrofuro[3,2-c]pyridin-4-yl)amino)methyl)-N-(5-(piperidin-4-yloxy)pyridin-2-yl)benzamide] | ≤ 3 | ≤ 3 | *** (ratio≥10) | – | 47.9 ± 7.7
Nc1nccc(-c2cnc(NCc3cccc(C(=O)Nc4ccc(N5CCCNCC5)cn4)c3)c3c2OCC3)n1 [Example 72, N-(5-(1,4-diazepan-1-yl)pyridin-2-yl)-3-(((7-(2-aminopyrimidin-4-yl)-2,3-dihydrofuro[3,2-c]pyridin-4-yl)amino)methyl)benzamide] | ≤ 3 | ≤ 3 | *** (ratio≥10) | – | –
Nc1nccc(-c2cnc(NCc3cccc(C(=O)Nc4ccc(N5C[C@H]6C[C@@H]5CN6)cn4)c3)c3c2OCC3)n1 [Example 68, N-(5-((1R,4R)-2,5-diazabicyclo[2.2.1]heptan-2-yl)pyridin-2-yl)-3-(((7-(2-aminopyrimidin-4-yl)-2,3-dihydrofuro[3,2-c]pyridin-4-yl)amino)methyl)benzamide] | ≤ 3 | ≤ 3 | *** (ratio≥10) | – | –
